Test results as given in US12678447B2, “Combinations of RIPK1- and IKK-inhibitors for the prevention or treatment of immune diseases” (Universität zu Köln, priority 2017, dated 2026).
Entries after “also recorded” stand apart in the source; their conditions may differ.

Tested on: bone marrow derived macrophages (BMDMs)
Experiment: LPS-induced IL-1β secretion in BMDMs treated with IKK2 inhibitors (ELISA)
Assay type: cell-based, mouse
Description: Bone marrow was isolated from the tibiae and femurs of one WT and one Ripk1^D138N/D138N mouse (6-7 week old). Bone marrow from one leg of each mouse was immediately frozen Bone marrow cells from the other leg were spun down at 1200 rpm, for 5 min and seeded in 15 cm^2 non-treated cell culture plates in 20 ml of medium containing 10 ng/ml M-CSF. Cells were allowed to differentiate for six days and subsequently adherent BMDMs were lifted, counted and seeded at a density of 2×10^5 cells/well in a 48 well plate. The day after, cells were pretreated with different concentrations of the IKK2 inhibitors for 30 min before stimulation with 100 ng/ml LPS in a total volume of 250 μl. Each experimental condition was assayed in triplicate. 20-24 h later supernatants were removed, cleared from floating cells and were frozen until cytokine measurements. IL-1β concentration was determined with a specific ELISA (eBioscience) following the manufacturer's instructions.
For the experiment with Nec1 the frozen bone marrow cells were used. After thawing, macrophages were differentiated as described above for fresh bone marrow cells. Necrostatin-1 (Nec-1) was added together with the IKK2 inhibitors during the 30 min pretreatment BMDMs were stimulated with LPS for 20-24 h and supernatants were kept for ELISA measurements. […]

Structure (SMILES) | amount of secreted IL-1β (LPS-induced, in BMDMs treated with IKK2 inhibitors) (Nec1 added together with IKK2 inhibitors during 30 min pretreatment, 100 ng/ml LPS for 20-24 h, FIG. 1B) | IL-1β secretion upon LPS stimulation (WT BMDMs pretreated 30 min with IKK2 inhibitor, then 100 ng/ml LPS for 20-24 h, IL-1β ELISA of supernatant)
CN1C(=O)C(Cc2c[nH]c3ccccc23)NC1=S (centres unmarked) [Necrostatin-1, 5-(1H-indo1-3-ylmethyl)-3-methyl-2-thioxo-4-imidazolidinone] | strongly diminished the LPS-induced production of IL-1β; also recorded: strongly reduced the amount of secreted IL-1β | 
NC(=O)Nc1sc(-c2ccc(F)cc2)cc1C(N)=O [TPCA-1] |  | greater potency
